These results are taken from ChEMBL document CHEMBL1201862, “PubChem BioAssay data set” (2004).

Some test systems named below: 786-0; CAKI-1; COLO 205; HCC 2998; HOP-62; LOX IMVI; MCF7; MDA-MB-435; MDA-N; OVCAR-3; OVCAR-5; RXF 393; SF-268; SF-539; SK-MEL-28; SK-OV-3; SN12C; SW-620; UACC-257.
Assay in all cases: NCI-60 cell line screen, 48 h

SMILES strings stand for the structures.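 Method: 48-hour compound exposure of cells in 96-well plates, five concentrations, linear interpolation of endpoints. At the GI50, growth is halved.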 The source made the active and inactive calls. Rule as the data show it: active = GI50 up to about 1.1 µM and inactive = higher.

With `CCCN(C(=O)c1c(Cl)nnc(Cl)c1C(=O)c1cc(Cl)nnc1Cl)c1cc(Cl)nnc1Cl`, the GI50 with 786-0 was 5.46 µM (inactive); in the assay with CAKI-1, 7.23 µM (inactive); with COLO 205, 5.77 µM (inactive); with HCC 2998, 16.9 µM (inactive); with HOP-62 it was 19 µM (inactive); in the assay on LOX IMVI it was 5.47 µM (inactive). Besides, the GI50 with MCF7 was 4.49 µM (inactive); in the assay with MDA-MB-435, 6.03 µM (inactive); in the assay with MDA-N, 6.7 µM (inactive); with OVCAR-3, 10.9 µM (inactive); in the assay on OVCAR-5 it was 21 µM (inactive); in the assay on RXF 393 it was 2.86 µM (inactive). The GI50 in the assay with SF-268 was 4.35 µM (inactive); in the assay on SF-539 it was 7.28 µM (inactive); in the assay on SK-MEL-28 it was 12.9 µM (inactive); in the assay with SK-OV-3, 33.3 µM (inactive); with SN12C, 12.4 µM (inactive); with SW-620, 6.67 µM (inactive). Also, the GI50 with UACC-257 is 14.2 µM (inactive).

With `O=C1CS(=O)(=O)C(c2cccc(Oc3ccccc3)c2)N1c1cccc(Cl)c1` (stereo not drawn), the GI50 is 19.8 µM (inactive) in the assay on 786-0; 25.7 µM (inactive) in the assay on CAKI-1; 18.8 µM (inactive) with COLO 205; 0.16 µM (active) in the assay on HCC 2998; 40.2 µM (inactive) with HOP-62; 15.7 µM (inactive) in the assay on LOX IMVI. Further, the GI50 was 14.8 µM (inactive) in the assay on MCF7; 13.9 µM (inactive) with MDA-MB-435; 16.6 µM (inactive) in the assay with MDA-N; 24.5 µM (inactive) in the assay with OVCAR-3; 55.1 µM (inactive) in the assay with OVCAR-5; 23.3 µM (inactive) in the assay with RXF 393. For the same molecule, the GI50 was 23.2 µM (inactive) in the assay with SF-268; 18 µM (inactive) with SF-539; 36.6 µM (inactive) in the assay on SK-MEL-28; 40.6 µM (inactive) with SK-OV-3; 31.8 µM (inactive) in the assay with SN12C; 24.8 µM (inactive) in the assay with SW-620. Also, the GI50 in the assay with UACC-257 was 17.1 µM (inactive).

Regarding `CCCCCCSCC/C(C)=N\OC`, the GI50 with 786-0, in the assay on CAKI-1, in the assay on COLO 205, in the assay on HCC 2998, with HOP-62 and in the assay with LOX IMVI was > 100 µM (inactive) throughout. The GI50 in the assay with MCF7, in the assay on MDA-MB-435, in the assay on MDA-N, with OVCAR-3, with OVCAR-5 and in the assay with RXF 393 was > 100 µM (inactive) in each case. Also, the GI50 in the assay with SF-268, in the assay on SF-539, in the assay with SK-MEL-28, in the assay on SK-OV-3, in the assay on SN12C and in the assay with SW-620 was > 100 µM (inactive) each time. Besides, in the assay on UACC-257, the GI50 is > 100 µM (inactive).

With `CC(C)C1/C(=N/O)CC(c2ccccc2)N(N=O)C1c1ccccc1` (stereo not drawn), the GI50 with 786-0 was 31.1 µM (inactive); with CAKI-1, 19.2 µM (inactive); with COLO 205 it was 16.9 µM (inactive); in the assay with HCC 2998 it was 37.2 µM (inactive); in the assay on HOP-62, 72.6 µM (inactive); in the assay with LOX IMVI it was 28.8 µM (inactive). The GI50 in the assay on MCF7 is 32.4 µM (inactive); with MDA-MB-435 it was 26.7 µM (inactive); with MDA-N, 39.2 µM (inactive); in the assay on OVCAR-3, 36.8 µM (inactive); with RXF 393, 20.9 µM (inactive); with SF-268 it was 51.8 µM (inactive). The GI50 is 57.8 µM (inactive) in the assay with SF-539; 50.1 µM (inactive) with SK-MEL-28; 24.8 µM (inactive) with SK-OV-3; 53.7 µM (inactive) in the assay on SN12C; 40.6 µM (inactive) in the assay with SW-620; 40.7 µM (inactive) in the assay on UACC-257.

For `COC(=O)C1Cc2c([nH]c3ccccc23)-c2[nH]c3ccccc3c2CC(NC(C)=O)C(=O)NCC(=O)N1` (stereo not drawn), the GI50 in the assay with 786-0, in the assay on CAKI-1, in the assay on COLO 205, with HCC 2998, in the assay on HOP-62 and in the assay on LOX IMVI was > 100 µM (inactive) each time. The GI50 in the assay on MCF7, in the assay with MDA-MB-435, in the assay on MDA-N, in the assay on OVCAR-3, with OVCAR-5 and in the assay with RXF 393 was > 100 µM (inactive) in each case. Further, the GI50 with SF-268, in the assay on SF-539, in the assay with SK-MEL-28, in the assay with SK-OV-3, in the assay with SN12C and in the assay on SW-620 was > 100 µM (inactive) in each case. Further, the GI50 with UACC-257 was > 100 µM (inactive).

On to `Cc1ccc(/N=C2/C(c3ccccc3)=C(SC3=C(c4ccccc4)/C(=N/c4ccc(C)cc4)c4ccccc43)c3ccccc32)cc1`, for which the GI50 was 10.4 µM (inactive) in the assay on 786-0; 15.2 µM (inactive) with CAKI-1; > 100 µM (inactive) in the assay on COLO 205; > 37.9 µM (inactive) with HCC 2998; 10 µM (inactive) in the assay on HOP-62; 67.6 µM (inactive) with LOX IMVI. For the same molecule, the GI50 in the assay on MCF7 was 27.1 µM (inactive); in the assay on MDA-MB-435 it was > 100 µM (inactive); with MDA-N, 97.7 µM (inactive); in the assay on OVCAR-3, 27.5 µM (inactive); in the assay with OVCAR-5 it was 39 µM (inactive); with RXF 393, 12.4 µM (inactive). Moreover, the GI50 in the assay with SF-268 is 6.44 µM (inactive); in the assay on SF-539, 6.21 µM (inactive); in the assay on SK-MEL-28, > 39.7 µM (inactive); in the assay on SK-OV-3, 15 µM (inactive); in the assay with SN12C, 20.9 µM (inactive); in the assay on SW-620, > 100 µM (inactive). Also, in the assay with UACC-257, the GI50 was 23.4 µM (inactive).

Consider `CCOP(=O)(OCC)/C(C#N)=C/c1ccc(-c2ccc(F)cc2F)o1`, for which the GI50 was 13.9 µM (inactive) with 786-0; 15.3 µM (inactive) in the assay with CAKI-1; 14.9 µM (inactive) with COLO 205; 14 µM (inactive) with HCC 2998; 19.2 µM (inactive) in the assay with HOP-62; 13.3 µM (inactive) with LOX IMVI. In addition, the GI50 is 19.7 µM (inactive) in the assay on MCF7; 12.6 µM (inactive) in the assay on MDA-MB-435; 33.7 µM (inactive) with MDA-N; 14.9 µM (inactive) in the assay with OVCAR-3; 17.3 µM (inactive) in the assay on OVCAR-5; 29 µM (inactive) in the assay with RXF 393. Moreover, the GI50 with SF-268 was 17.3 µM (inactive); in the assay with SF-539, 20.7 µM (inactive); in the assay on SK-MEL-28, 14.8 µM (inactive); with SK-OV-3 it was 14 µM (inactive); in the assay on SN12C it was 15.8 µM (inactive); with SW-620, 18.7 µM (inactive). For the same molecule, in the assay on UACC-257, the GI50 is 13.3 µM (inactive).

With `O=C(CC1C(=O)Nc2ccccc2[S+]1[O-])Nc1cccc(Cl)c1` (stereo not drawn), the GI50 with 786-0 is 37.2 µM (inactive); in the assay on CAKI-1 it was 20.7 µM (inactive); with COLO 205 it was > 41 µM (inactive); with HCC 2998 it was > 47.5 µM (inactive); in the assay with HOP-62, 25.5 µM (inactive); with LOX IMVI, > 100 µM (inactive). The GI50 in the assay on MCF7 was 13.8 µM (inactive); in the assay on MDA-MB-435 it was 27.9 µM (inactive); in the assay on MDA-N, 18.6 µM (inactive); with OVCAR-3, 32.7 µM (inactive); in the assay with OVCAR-5 it was > 62.7 µM (inactive); with RXF 393, 20.9 µM (inactive). Further, the GI50 in the assay with SF-268 is 55.1 µM (inactive); in the assay on SF-539, 18.6 µM (inactive); in the assay with SK-MEL-28 it was > 57.7 µM (inactive); in the assay on SK-OV-3, 31.3 µM (inactive); in the assay on SN12C, > 51.9 µM (inactive); with SW-620 it was > 48 µM (inactive). Moreover, the GI50 in the assay with UACC-257 was > 50.5 µM (inactive).

With `C[C@]12CCC(=O)C=C1CC[C@@H]1[C@@H]2CC[C@]2(C)C(=O)/C(=C/c3ccncc3)C[C@@H]12`, the GI50 in the assay with 786-0 is 15.1 µM (inactive); with CAKI-1, 15.9 µM (inactive); in the assay with COLO 205, 13.2 µM (inactive); in the assay on HCC 2998 it was 16.7 µM (inactive); in the assay with HOP-62, 14.6 µM (inactive); in the assay on LOX IMVI it was 15.7 µM (inactive). Moreover, the GI50 with MCF7 is 11.5 µM (inactive); in the assay on MDA-MB-435, 17.1 µM (inactive); in the assay with MDA-N, 20.1 µM (inactive); in the assay with OVCAR-3 it was 13 µM (inactive); in the assay with OVCAR-5 it was 16.9 µM (inactive); in the assay with RXF 393 it was 15.6 µM (inactive). In addition, the GI50 is 18.8 µM (inactive) in the assay with SF-268; 7.4 µM (inactive) with SF-539; 20 µM (inactive) in the assay on SK-MEL-28; 20 µM (inactive) in the assay on SK-OV-3; 16.7 µM (inactive) in the assay on SN12C; 23.8 µM (inactive) in the assay with SW-620. The GI50 in the assay on UACC-257 was 13.4 µM (inactive).

Regarding `Cc1cc2c(nn1)-c1ccccc1C2=O`, the GI50 with 786-0, in the assay with CAKI-1, with COLO 205, with HCC 2998, in the assay on HOP-62 and in the assay on LOX IMVI was > 10 µM (inactive) throughout. In addition, the GI50 in the assay on MCF7, in the assay on MDA-MB-435, in the assay with MDA-N, in the assay with OVCAR-3, in the assay on OVCAR-5 and in the assay with RXF 393 was > 10 µM (inactive) in each case. Besides, the GI50 in the assay with SF-268, with SF-539, with SK-MEL-28, in the assay with SK-OV-3, with SN12C and in the assay with SW-620 was > 10 µM (inactive) each time.
